Laboratory results as given in patent US20050013853A1, “Anti-proliferative drugs” (priority 2000, published 2005).
Like-named read-outs stand apart in the source and are kept apart here.

Key:
[1] = test system: HaCat cells; assay: Cell viability of HaCat keratinocytes, Neutral Red Staining; type: cell-based, human; conditions: for IC50: Homo sapiens, HaCaT, read-out: Mean IC50 in keratinocytes, HaCat; for Responsiveness of HaCat cells (viability): comparison of thioridazine, doxorubicin, 5-FU, FIG. 3A; for Effect on viability of HaCat cells: 5-100 μM, 24 hr
Protocol: (§1) In general, 10,000 cells/well were treated with drugs from different categories of psychotropic drugs.
(§2) The effect of the drugs was compared at equimolar concentrations to that of two commonly used anticancer agents (Doxorubicin and 5-fluorouracil (5-FU)).

[2] = test system: HaCat A5 cells; assay: Cell viability of HaCat A5 keratinocytes, Neutral Red Staining; type: cell-based, human; conditions: for Effect on viability of HaCat A5 cells: 5-100 μM, 24 hr
Protocol: as §1, §2

[3] = test system: HaCat II-4RT cells; assay: Cell viability of HaCat II-4RT keratinocytes, Neutral Red Staining; type: cell-based, human; conditions: for Effect on viability of HaCat II4 cells: 5-100 μM, 24 hr
Protocol: as §1, §2

[4] = test system: wild type B16 melanoma cells; assay: Cell viability of wild type B16 melanoma cells; type: cell-based; conditions: 24 hr, 10-100 μM
[5] = test system: MDR B16 melanoma cells; assay: Cell viability of MDR B16 melanoma cells; type: cell-based; conditions: 24 hr
Protocol: Specifically, the different drugs were applied for 24 hr to the cells (20,000/well) at concentrations of 10, 20, 30, 50, 75 and 100 μM.

[6] = test system: TNF-α secretion from mouse splenocytes; assay: Con-A-induced TNF-α secretion from mouse splenocytes, ELISA; type: cell-based; conditions: 48 hours; for IC50: Mus musculus, Splenocyte, 2.5-20 μM, mean of three experiments
Protocol: Cells treated with Con-A alone served as the control (“Con-A”).
In particular, mouse splenocyte cells 1×10 (cells/well) were exposed, for 48 hours, to the different drugs and ConA and at the end of the experiment plates were centrifuged and supernatant collected for cytokine determination and TNF-α levels were determined in soups by ELISA. (R&D #DY410 Minnapolis USA)
(§3) As described above, cells were exposed to each drug for 48 hours.

[7] = test system: HaCat cells; assay: Apoptosis by Hoechst 33342 / propidium iodide fluorescence microscopy; type: cell-based, human; conditions: 20 μM, 24 hours
Protocol: In particular, HaCat cells (10,000/well) were exposed to the different drugs (20 μM) or to saline (control). Twenty four hours post exposure, the cells were co-stained with the DNA binding dyes, Hoechst 33342 (20 μg/ml) propidium iodide (PI) (10 μg/ml), for 5 min at room temperature. The cells were then examined using a fluorescence microscope with ultraviolet excitation at 340-380 nm. Typically, intact cells are detected by a blue Hoechst fluorescence while fragmented nuclear is detected by a red fluorescence, indicating cells undergoing apoptosis [Harel et al., Sensitivity of HaCat keratinocytes to diabetogenic toxins, Biochem. Pharmacol., 63:171-178, 2002].

[8] = test system: wild type B16 melanoma cells; assay: Effect on doxorubicin toxicity in wild type B16 melanoma cells; type: cell-based; conditions: clomipramine 10, […], 20 μM + doxorubicin 1, 2.5, 5 μM, 24 hr
[9] = test system: MDR B16 melanoma cells; assay: Sensitization of MDR B16 melanoma cells to doxorubicin; type: cell-based; conditions: 24 hr
[10] = test system: mouse splenocytes; assay: Con-A-induced mouse splenocyte proliferation, Alamar blue; type: cell-based; conditions: for Splenocyte proliferation: 48 hours
Protocol: The effect of several psychotropic drugs on the proliferation of Con-A-induced mouse splenocyte proliferation was examined. The specific drugs evaluated included, without being limited thereto, the bicyclic antidepressants paroxetine and sertraline.
In particular, mouse splenocytes were isolated from C57BL healthy female mice. […]
Cell viability was assessed 48 hr later using Alamar blue staining.
(§4) In particular, cells 1×10^6 cells/well were exposed for 48 hours to each drug (2.5-10 μM).
as §3

[11] = test system: IL-2 and INF-γ secretion from mouse splenocytes; assay: Con-A-induced splenocyte secretion of IL-2 and INF-γ; type: cell-based; conditions: 48 hours, 2.5-10 μM; FIG. 14
Protocol: as §4

[12] = test system: caspase-3 in human HaCaT cells; assay: Caspase-3 activation, fluorimetric Ac-DEVD-AMC method; type: cell-based; conditions: 4 hours, paroxetine 10-20 μM, sertraline 10-[…] μM
Protocol: An additional marker for apoptosis is the activation of caspase-3 (a key mediator implicated in apoptosis in mammalian cells belong to the asparate-specific cysteinyl proteases or caspases).
In the following assay caspase-3 activation was measured by an enzymatic fluorimetric method, using fluorigenic substrate (Ac-DEVD-AMC) (Biomol, PA, USA) which produces a blue fluorescence detected at a 360 nm wavelength. The fluorigenic moiety AMC is cleaved from the substrate in the presence of caspase-3 (and caspase-3-like enzymes), which results in appearance of a yellow-green fluorescence monitored by a fluorimeter at 460 nm. The amount of the yellow-green fluorescence is proportional to the activity of the caspase-3 in the cell extract sample.
[…]. […] Measurements were determined, after the 4 hr exposure, every 3 min during 45 min, after which a specific caspase 3 inhibitor DEVD-AMC-CHO (Alexis corp. Lausen Switzerland) was added to half of the samples and measurements continued for another 45 min as previously described (Garcia-Calvo M, Peterson E P, Leiting B, Ruel R, Nicholson D W, Thornberry N A: Inhibition of human caspases by peptide-based and macromolecular inhibitors. J Biol Chem, 27(49):32608-13, 1998).

[13] = test system: human lymphocytes; assay: PHA-induced human lymphocyte proliferation, Alamar blue; type: cell-based; conditions: PHA 2.5 μg/ml, 48 hr, 3 healthy volunteers
Protocol: Human lymphocytes were isolated from whole blood of 3 healthy volunteers. Lymphocyte proliferation was induced by exposure 1×10^6 cells/well to phytohemagglutinin (PHA) (2.5 μg/ml). Cell viability was assessed 48 hr post exposure to paroxetine (2.5-10.0 μM) using Alamar blue reagent (Wildflower, Santa Fe, N.M., USA) staining Nociari M M, Shalev A, Benias P , et al. A novel one-step highly sensitive fluorimetric assay to evaluate cell-mediated cytotoxicity. J. Immunol. Methods 213(2): 157-167, 1998.

[14] = 24 hr post-administration, Neutral Red, mean of several experiments

## CN(C)CCCC1(c2ccc(F)cc2)OCc2cc(C#N)ccc21 (stereo not shown) [Citalopram, citalopram]
[1]; [14]
  IC50: > 100 µM

## O=c1[nH]cc(F)c(=O)[nH]1 [5-FU, 5-fluorouracil]
[1]
  Responsiveness of HaCat cells (viability): resistant
[2]; comparison of thioridazine, doxorubicin, 5-FU, FIG. 3B
  Responsiveness of HaCat A5 cells (viability): resistant

## COc1ccc(C(CN(C)C)C2(O)CCCCC2)cc1 (stereo not shown) [Venlafaxine, venlafaxine]
[1]; [14]
  IC50: > 100 µM

## CNCCC(Oc1ccc(C(F)(F)F)cc1)c1ccccc1 (stereo not shown) [Fluoxetine, fluoxetine]
[1]
  Effect on viability of HaCat cells: effective in reducing viability
[2]
  Effect on viability of HaCat A5 cells: effective in reducing viability
[3]
  Effect on viability of HaCat II4 cells: effective in reducing viability
[4]
  Viability of wild type B16 melanoma cells: capable of reducing cell viability, with fluoxetine being the most effective drug

## NCCC(Oc1ccc(C(F)(F)F)cc1)c1ccccc1 (stereo not shown) [norfluoxetine]
[1]; viability of HaCat cells, FIG. 10
  Antiproliferative activity as compared to fluoxetine: five times increased antiproliferative activity

## CN1CCN(C2=Nc3cc(Cl)ccc3Nc3ccccc32)CC1 [Clozapine, clozapine]
[1]
  Effect on viability of HaCat cells: effective in reducing viability
[2]
  Effect on viability of HaCat A5 cells: effective in reducing viability
[3]
  Effect on viability of HaCat II4 cells: effective in reducing viability
[4]
  Viability of wild type B16 melanoma cells: reduced in a dose dependent manner
[5]
  Viability of MDR B16 melanoma cells: reduced in a dose dependent manner

## C[C@@H]1C[C@H]2[C@@H]3CCC4=CC(=O)C=C[C@]4(C)[C@@]3(F)[C@@H](O)C[C@]2(C)[C@@]1(O)C(=O)CO [dexamethasone]
[6]
  IC50: 0.6 µM

## COc1cccc2c1C(=O)c1c(O)c3c(c(O)c1C2=O)C[C@@](O)(C(=O)CO)C[C@@H]3O[C@H]1C[C@H](N)[C@H](O)[C@H](C)O1 [doxorubicin]
[1]
  Responsiveness of HaCat cells (viability): equimolar IC50 as for thioridazine

## CN(C)CCCN1c2ccccc2CCc2ccc(Cl)cc21 [Clomipramine, clomipramine]
[1]
  Effect on viability of HaCat cells: effective in reducing viability
[2]
  Effect on viability of HaCat A5 cells: effective in reducing viability
[3]
  Effect on viability of HaCat II4 cells: effective in reducing viability
[7]
  Red fluorescence of nuclei indicating apoptosis: dramatic increase in red fluorescence of nuclei
[4]
  Viability of wild type B16 melanoma cells: capable of reducing cell viability
[8]
  Cell viability from control, in combination with doxorubicin: less than 15%
[9]
  Cell viability in combination with doxorubicin: significantly reduced, in a dose dependant manner
[10]; 2.5-10 μM, FIG. 14
  Splenocyte proliferation: dose dependent decrease in splenocyte proliferation
[11]
  Lymphocyte-induced cytokine secretion (IL-2, INF-γ): decrease in the lymphocyte-induced cytokine secretion

## Fc1ccc([C@@H]2CCNC[C@H]2COc2ccc3c(c2)OCO3)cc1 [Paroxetine, paroxetine]
[1]
  Effect on viability of HaCat cells: effective in reducing viability
[1]; [14]
  IC50: 17.8 µM
[2]
  Effect on viability of HaCat A5 cells: effective in reducing viability
[3]
  Effect on viability of HaCat II4 cells: effective in reducing viability
[7]
  Red fluorescence of nuclei indicating apoptosis: dramatic increase in red fluorescence of nuclei
[12]
  Caspase-3 activity: significant increase in caspase-3 activity
[4]
  Viability of wild type B16 melanoma cells: capable of reducing cell viability
[13]
  IC50: 5 to 10 µM
[10]; 2.5-10 μM, FIG. 14
  Splenocyte proliferation: dose dependent decrease in splenocyte proliferation
[10]; 2.5-25 μM, FIG. 16
  Splenocyte proliferation: inhibited cell proliferation and TNF-α secretion in a dose dependent manner
[10]; Mus musculus, Splenocyte, 48 hr, 2.5-10 μM, C57BL mice
  IC50: 2.5 to 5.5 µM
[11]
  Lymphocyte-induced cytokine secretion (IL-2, INF-γ): decrease in the lymphocyte-induced cytokine secretion
[6]; 2.5-25 μM, FIG. 16
  TNF-α secretion: inhibited cell proliferation and TNF-α secretion in a dose dependent manner
[6]
  IC50: 2.5 µM

## CN(C)CCCN1c2ccccc2CCc2ccccc21 [Imipramine, imipramine]
[1]
  Effect on viability of HaCat cells: effective in reducing viability
[2]
  Effect on viability of HaCat A5 cells: effective in reducing viability
[2]; Homo sapiens, HaCaT, 24 hr post-administration, Neutral Red, mean of several experiments
  IC50: 62 µM
[3]
  Effect on viability of HaCat II4 cells: effective in reducing viability
[3]; Homo sapiens, HaCaT, 24 hr post-administration, Neutral Red, mean of several experiments, read-out: Mean IC50 in keratinocytes, HaCatII4RT
  IC50: 48 µM

## CCOc1ccccc1OC(c1ccccc1)C1CNCCO1 (stereo not shown) [Reboxetine, reboxetine]
[1]; 24 h
  IC50: > 100 µM

## CN[C@H]1CC[C@@H](c2ccc(Cl)c(Cl)c2)c2ccccc21 [Sertraline, sertraline]
[12]
  Caspase-3 activity: significant increase in caspase-3 activity

## CSc1ccc2c(c1)N(CCC1CCCCN1C)c1ccccc1S2 (stereo not shown) [Thioridazine, thioridazine]
[1]
  Effect on viability of HaCat cells: effective in reducing viability
[2]
  Effect on viability of HaCat A5 cells: effective in reducing viability
[3]
  Effect on viability of HaCat II4 cells: effective in reducing viability
